This is an account of results in patent US4202967A, “N,N-pentamethylene derivatives of daunomycin and adriamycin” (SRI International, priority 1978, dated 1980).

Counter-ions that a name gives are not always drawn. Like-named read-outs stand apart in the source and are kept apart here.

Experiment [1] concerns P388 lymphocytic leukemia. Briefly: Antitumor activity in mice (P388, qd 1-9). The settings on record: ip; for T/C (P388, qd 1-9): at optimal dose, days 1-9, ratio of average survival times treated/untreated, active if T/C ≥ 125; for Opt. Dose (P388, qd 1-9): days 1-9. The class given is in vivo. As to the method: (§1) As indicated above, the compounds of the present invention have improved antitumor activity. This is evidenced by the data given below. In one operation, conducted in accordance with Protocol 1200 set forth in Cancer Chemotherapy Reports, National Cancer Institute, Vol. 3, No. 2, Part 3, September 1972, healthy mice were inoculated i.p. with Limphocytic Leukemia P-388 ascitic fluid. The inoculated mice were then treated i.p. for the succeeding 9 day period with varying amounts of the test chemicals of Example 2 while others of the mice were similarly inoculated with adrimycin hydrochloride and with daunomycin hydrochloride, the dosage pattern being set forth in the table given below. The average survival times of the treated mice was then determined, as was that of the control mice, which were inoculated with the ascitic fluid but given no treatment with the test chemicals. Presented in the following table under the T/C column headings are data obtained by dividing the survival time of the treated mice with that of the control mice, the quotient so obtained being multiplied by 100.
(§2) ^b Assays arranged through Drug Research and Development Program,
(§3) Division of Cancer Treatment, National Cancer Institute. BDF or CDF mice
(§4) are injected ip with […] P388 lymphocytic leukemia cells on Day 0
(§5) and are treated ip on Days 1-9 or days 5, 9, 13 with the specified drug
(§6) dose. For detailed protocols see R. I. Geran, N. H. Greenberg, M. M.
(§7) MacDonald, A. M. Schumacher, and B. J. Abbott, Cancer Chemother. Rep.,
(§8) ^c Ratio of average survival times of treated mice to untreated
(§9) controls in percent. The average survival time of untreated controls is
(§10) approximately 11 days. Activity is defined as values of T/C ≥ 120
(§11) in the qd 5, 9, 13 protocol and T/C ≥ 125 in the qd 1-9 protocol.

Experiment [2] concerns P388 lymphocytic leukemia. Briefly: Antitumor activity in mice (P388, qd 5,9,13). The class given is in vivo. As to conditions: ip; for T/C (P388, qd 5,9,13): at optimal dose, days 5, 9, 13, ratio of average survival times treated/untreated, active if T/C ≥ 120; for Opt. Dose (P388, qd 5,9,13): days 5, 9, 13. The procedure: as §1, §2, §3, §4, §5, §6, §7, §8, §9, §10, §11

In experiment [3] the test system is RNA synthesis in L1210 cells. The experiment can be described thus: Inhibition of RNA synthesis (incorporation of tritiated 3H-uridine) in cultured L1210 cells. As to conditions: for IC50: Mus musculus; for Nucleic Acid Syn Inhibn, ED50 ratio DNA/RNA: ED50 DNA divided by ED50 RNA. The class given is cell-based. As to the method:
(§12) Also presented in the table are the results of in vitro tests using cultured L1210 cells in which the activity of each chemical enumerated in the following table is presented in relation to its potency as an inhibitor of nucleic acid synthesis. Data for daunomycin and adriamycin are also included in the table for the sake of comparison. More specifically, the inhibition of the synthesis of DNA and RNA by each compound was measured as a function of its activity in inhibiting incorporation of tritiated ^3 H-thymidine or ^3 H-uridine into DNA and RNA, respectively. ED50 represents the concentration, in micromolar units, which inhibits incorporation of 50% of tritiated ^3 H-thymidine or ^3 H-uridine into the DNA and RNA of the test cells.
(§13) ^a ΔTm and Ed50 values were determined by the method of G.
(§14) Tong, W. W. Lee, D. R. Black, and D. W. Henry, J. Med. Chem., 19, 395
(§15) (1976), except that the drugs were initially dissolved in a volume of DMS
(§16) the assay medium. This modification greatly aided solubilization and did
(§17) not affect assay results, according to extensive control experiments.

Experiment [4] relates to DNA synthesis in L1210 cells. Briefly: Inhibition of DNA synthesis (incorporation of tritiated 3H-thymidine) in cultured L1210 cells. The settings on record: Mus musculus. The format is cell-based. The procedure:
as §12, §13, §14, §15, §16, §17

Another experiment in a line: ΔTm. The format is binding. The settings on record: drugs initially dissolved in DMSO; final DMSO 5%. The procedure:
as §13, §14, §15, §16, §17

[5] abbreviates: L1210, read-out: Nucleic Acid Syn Inhibn, ED50 RNA.
[6] abbreviates: L1210, read-out: Nucleic Acid Syn Inhibn, ED50 DNA.

As for `COc1cccc2c1C(=O)c1c(O)c3c(c(O)c1C2=O)C[C@@](O)(C(C)=O)C[C@@H]3O[C@H]1C[C@H](N)[C@H](O)[C@H](C)O1` [Daunomycin hydrochloride], in experiment [1], the “T/C (P388, qd 1-9)” value is reported as 160% and the “Opt. Dose (P388, qd 1-9)” value was determined as 0.78 mg/kg. Further, in experiment [2], the “T/C (P388, qd 5,9,13)” value turned out to be 132% and the “Opt. Dose (P388, qd 5,9,13)” value was 8 mg/kg. Further, the IC50 in experiment [3] (setting [5]) turned out to be 330 nM. Also, the IC50 in experiment [4] (setting [6]) stood at 660 nM.

The term ΔTm denotes the shift of the melting midpoint relative to a reference. For the compound `COc1cccc2c1C(=O)c1c(O)c3c(c(O)c1C2=O)C[C@@](O)(C(O)CO)C[C@@H]3O[C@H]1C[C@H](N2CCCCC2)[C@H](O)[C@H](C)O1` (stereo partly drawn) [N,N-Pentamethylene-13-dihydroadriamycin], in “ΔTm”, the ΔTm worked out at 12.5 °C. In experiment [1], the “T/C (P388, qd 1-9)” value is recorded as 157% and the “Opt. Dose (P388, qd 1-9)” value is 1.56 mg/kg. Moreover, in experiment [2], the “T/C (P388, qd 5,9,13)” value is listed as 143% and the “Opt. Dose (P388, qd 5,9,13)” value came out at 18 mg/kg. Moreover, the “Nucleic Acid Syn Inhibn, ED50 ratio DNA/RNA” value in experiment [3] (L1210 cells) came to 7.2. In addition, the IC50 in experiment [3] (setting [5]) amounted to 100 nM. The IC50 in experiment [4] (setting [6]) was found to be 720 nM.

For the compound `COc1cccc2c1C(=O)c1c(O)c3c(c(O)c1C2=O)C[C@@](O)(C(=O)CO)C[C@@H]3O[C@H]1C[C@H](N)[C@H](O)[C@H](C)O1` [Adriamycin hydrochloride], the thermal shift (ΔTm) in “ΔTm” is 13.4 °C. In addition, in experiment [1], the “T/C (P388, qd 1-9)” value was 197% and the “Opt. Dose (P388, qd 1-9)” value was found to be 0.78 mg/kg. In experiment [2], the “T/C (P388, qd 5,9,13)” value is 159% and the “Opt. Dose (P388, qd 5,9,13)” value came out at 8 mg/kg. For the same compound, the “Nucleic Acid Syn Inhibn, ED50 ratio DNA/RNA” value in experiment [3] (L1210 cells) amounted to 2.6. Besides, the IC50 in experiment [3] (setting [5]) was 580 nM. Further, the IC50 in experiment [4] (setting [6]) was 1500 nM.

Turning to `COc1cccc2c1C(=O)c1c(O)c3c(c(O)c1C2=O)C[C@@](O)(C(=O)CO)C[C@@H]3O[C@H]1C[C@H](N2CCCCC2)[C@H](O)[C@H](C)O1` [N,N-Pentamethyleneadriamycin], the ΔTm in the experiment “ΔTm” amounted to 15.4 °C. Moreover, in experiment [1], the “T/C (P388, qd 1-9)” value was 190% and the “Opt. Dose (P388, qd 1-9)” value was found to be 3.13 mg/kg. In experiment [2], the “T/C (P388, qd 5,9,13)” value is given as 155% and the “Opt. Dose (P388, qd 5,9,13)” value came out at 9.4 mg/kg. In addition, in experiment [3] (L1210 cells), the “Nucleic Acid Syn Inhibn, ED50 ratio DNA/RNA” value was 17.5. In experiment [3] (L1210 cells, 3H-uridine incorporation, 50% inhibition, final DMSO 1%, read-out: Nucleic Acid Syn Inhibn, ED50 RNA), the IC50 was found to be 40 nM. The IC50 in experiment [4] (L1210 cells, 3H-thymidine incorporation, 50% inhibition, final DMSO 1%, read-out: Nucleic Acid Syn Inhibn, ED50 DNA) amounted to 700 nM.
